Holding throughout (format): in vivo
In test [1] the test system is Avena fatua (AVEFA). Description: Pre-emergence herbicidal activity (B1). The settings on record: Test 1b; pre-emergence application; rate 1000 g/ha; evaluated after 13 days; score 0-5. The method, then:
(§1) Seeds of a variety of test species were sown in standard soil in pots: Triticum aestivium (TRZAW), Avena fatua (AVEFA), Alopecurus myosuroides (ALOMY), Echinochloa crus-galli (ECHCG), Lolium perenne (LOLPE), Zea Mays (ZEAMX), Abutilon theophrasti (ABUTH), Amaranthus retroflexus (AMARE) and Setaria faberi (SETFA). […] The test plants were then grown in a glasshouse under controlled conditions (at 24/16° C., day/night; 14 hours light; 65% humidity) and watered twice daily. After 13 days, the test was evaluated (5=total damage to plant; 0=no damage to plant).

Test [2] relates to Lolium perenne (LOLPE). The test is described as follows: Pre-emergence herbicidal activity (B1). The settings on record: Test 1b; pre-emergence application; rate 1000 g/ha; evaluated after 13 days; score 0-5. The method, then:
as §1

Test [3] deals with Triticum aestivium (TRZAW). Description: Pre-emergence herbicidal activity (B1). The following applies: Test 1b; pre-emergence application; rate 1000 g/ha; evaluated after 13 days; score 0-5. The method, then: as §1
Test [4] relates to Setaria faberi (SETFA). Description: Pre-emergence herbicidal activity (B1). The following applies: Test 1b; pre-emergence application; rate 1000 g/ha; evaluated after 13 days; score 0-5. The method, then:
as §1

In test [5] the test system is Echinochloa crus-galli (ECHCG). Description: Pre-emergence herbicidal activity (B1). The settings on record: Test 1b; pre-emergence application; rate 1000 g/ha; evaluated after 13 days; score 0-5. The method, then:
as §1

The test system of test [6] is Alopecurus myosuroides (ALOMY). The test is described as follows: Pre-emergence herbicidal activity (B1). The settings on record: Test 1b; pre-emergence application; rate 1000 g/ha; evaluated after 13 days; score 0-5. The method, then:
as §1

Test [7] has as its system Avena fatua (AVEFA). The test is described as follows: Post-emergence herbicidal activity (B2). The settings on record: Test B2b; post-emergence application; rate 1000 g/ha; evaluated after 13 days; score 0-5. The method, then:
as §1

Test [8] deals with Lolium perenne (LOLPE). Description: Post-emergence herbicidal activity (B2). The following applies: Test B2b; post-emergence application; rate 1000 g/ha; evaluated after 13 days; score 0-5. The method, then: as §1
Test [9] has as its system Triticum aestivium (TRZAW). The test is described as follows: Post-emergence herbicidal activity (B2). The following applies: Test B2b; post-emergence application; rate 1000 g/ha; evaluated after 13 days; score 0-5. The method, then:
as §1

Test [10] concerns Setaria faberi (SETFA). Description: Post-emergence herbicidal activity (B2). The following applies: Test B2b; post-emergence application; rate 1000 g/ha; evaluated after 13 days; score 0-5. The method, then: as §1
Test [11] deals with Echinochloa crus-galli (ECHCG). Description: Post-emergence herbicidal activity (B2). The settings on record: Test B2b; post-emergence application; rate 1000 g/ha; evaluated after 13 days; score 0-5. The method, then:
as §1

The subject of test [12] is Alopecurus myosuroides (ALOMY). Description: Post-emergence herbicidal activity (B2). The following applies: Test B2b; post-emergence application; rate 1000 g/ha; evaluated after 13 days; score 0-5. The method, then: as §1

On to `CCOC(=O)c1nc(-c2cncnc2)cnc1N` [Compound G2], for which the entries for the “damage to plant, AVEFA” value in the test on Avena fatua (AVEFA) [1] and in the test on Avena fatua (AVEFA) [7] were 0 and 1, respectively. The “damage to plant, LOLPE” value with Lolium perenne (LOLPE) [2] was 0; in the test on Lolium perenne (LOLPE) [8] it was 1. Besides, the “damage to plant, TRAZW” value in test [3] and in test [9] was 0 throughout. Besides, the “damage to plant, SETFA” value in the test with Setaria faberi (SETFA) [4] is 2; in the test on Setaria faberi (SETFA) [10], 3. The “damage to plant, ECHCG” value in test [5] is reported as 0; in [11], 1. For the same molecule, the “damage to plant, ALOMY” value in test [6] is recorded as 0; in test [12], 1.
For the molecule `Nc1ncc(-c2cncc(F)c2)nc1C(F)(F)F` [Compound G3, 2-amino-3-trifluoromethyl-5-(5-fluoropyrid-3-yl) pyrazine], the “damage to plant, AVEFA” value with Avena fatua (AVEFA) [1] is given as 1; in the test with Avena fatua (AVEFA) [7] it was 3. Besides, the figures for the “damage to plant, LOLPE” value in the test with Lolium perenne (LOLPE) [2] and in the test with Lolium perenne (LOLPE) [8] were 0 and 2, respectively. The “damage to plant, TRAZW” value amounted to 1 in [3] and 0 in test [9]. Moreover, the “damage to plant, SETFA” value in the test on Setaria faberi (SETFA) [4] is 4; with Setaria faberi (SETFA) [10], 3. The “damage to plant, ECHCG” value in [5] turned out to be 3; in [11] it was 4. In addition, the “damage to plant, ALOMY” value is 1 in test [6] and 0 in test [12].
On to `Cc1nc(-c2cncc(F)c2)cnc1N` [Compound G4], for which the “damage to plant, AVEFA” value in the test with Avena fatua (AVEFA) [1] and in the test on Avena fatua (AVEFA) [7] was 1 each time. The “damage to plant, LOLPE” value in the test on Lolium perenne (LOLPE) [2] and with Lolium perenne (LOLPE) [8] was 0 in each case. Also, the “damage to plant, TRAZW” value in [3] and in test [9] was 0 in each case. Moreover, the “damage to plant, SETFA” value turned out to be 1 in the test on Setaria faberi (SETFA) [4] and 3 with Setaria faberi (SETFA) [10]. Also, the “damage to plant, ECHCG” value is recorded as 1 in test [5] and 2 in [11]. In addition, the “damage to plant, ALOMY” value in test [6] and in test [12] was 0 in each case.
With `COc1nc(-c2cncc(F)c2)cnc1N` [Compound G5], the “damage to plant, AVEFA” value in the test on Avena fatua (AVEFA) [1] came out at 0; with Avena fatua (AVEFA) [7], 1. The “damage to plant, LOLPE” value in the test on Lolium perenne (LOLPE) [2] and in the test on Lolium perenne (LOLPE) [8] was 0 in each case. For the same molecule, the “damage to plant, TRAZW” value in test [3] and in test [9] was 0 in each case. Besides, the “damage to plant, SETFA” value in the test on Setaria faberi (SETFA) [4] worked out at 1; with Setaria faberi (SETFA) [10], 3. The “damage to plant, ECHCG” value in test [5] came out at 1; in test [11], 2. For the same molecule, the “damage to plant, ALOMY” value in test [6] is 0; in test [12], 1.
In the case of `Nc1ncc(-c2cncnc2)nc1C(F)(F)F` [Compound G6], the “damage to plant, AVEFA” value with Avena fatua (AVEFA) [1] and with Avena fatua (AVEFA) [7] was 1 throughout. For the same molecule, the entries for the “damage to plant, LOLPE” value with Lolium perenne (LOLPE) [2] and in the test with Lolium perenne (LOLPE) [8] were 0 and 1, respectively. For the same molecule, the “damage to plant, TRAZW” value in test [3] and in [9] was 0 each time. In addition, the “damage to plant, SETFA” value in the test on Setaria faberi (SETFA) [4] turned out to be 2; in the test with Setaria faberi (SETFA) [10], 3. In addition, the entries for the “damage to plant, ECHCG” value in [5] and in [11] were 1 and 3, respectively. The “damage to plant, ALOMY” value in test [6] and in [12] was 0 in each case.
On to `N#Cc1nc(-c2cncc(F)c2)cnc1N` [Compound G7], for which the figures for the “damage to plant, AVEFA” value in the test with Avena fatua (AVEFA) [1] and in the test with Avena fatua (AVEFA) [7] were 0 and 1, respectively. Moreover, the “damage to plant, LOLPE” value in the test on Lolium perenne (LOLPE) [2] and in the test on Lolium perenne (LOLPE) [8] was 0 each time. Further, the “damage to plant, TRAZW” value in test [3] and in test [9] was 0 throughout. In addition, the “damage to plant, SETFA” value in the test on Setaria faberi (SETFA) [4] is on record as 1; in the test with Setaria faberi (SETFA) [10], 2. Also, the “damage to plant, ECHCG” value worked out at 1 in test [5] and 3 in [11]. Also, the “damage to plant, ALOMY” value in test [6] and in test [12] was 0 in each case.
